Laboratory results: patent US6780871B2, “Methods and compositions for treating addiction disorders” (Albany Medical College, priority 2001, dated 2004)

How the values were obtained:
nACh receptors = biological target: T1, nACh receptors (Rattus norvegicus, UniProt P09483+P12390); assay: whole-cell patch-clamp of transfected HEK293 cells, neuronal nACh receptors, 300 μM ACh; type: cell-based; settings: 300 μM ACh, estimated from 5 and 20 μM data; read-out: IC50 suggested by the inhibition data
T1 construct: expressed in transfected cells; host or cells: HEK293 (ATCC CRL1573), transient transfection
Description: (§1) Human embryonic kidney 293 (HEK293) fibroblasts (ATCC CRL1573) were cultured in minimal essential medium supplemented with 10% fetal bovine serum and 2 mM glutamine (Life Technologies, Rockville, Md.). Cells were plated on poly-D-lysine-coated 35 mm nunc dishes, transfected by the LipofectaminePLUS method (Life Technologies), and examined functionally between 18-48 h post transfection. The following receptor subunit cDNAs were used: nAChR-α3 (nicotinic acetylcholine receptor-α3; accession no. L31621), nAChR-α4 (accession no. L31620), nAChR-β2 (accession no. L31622), nAChR-β4 (accession no. U42976), 5-HT3R-A (5-HT3A receptor; accession no. M74425), NR1 (N-methyl-D-aspartate receptor 1; accession no. X63255), NR2A (accession no. X91561), and NR2B (accession no. M91562). The nAchR and NR clones were rat; the 5-HT3R-A clone was mouse. Co-transfection of enhanced green fluorescent protein (“EGFP”) (10% of total cDNA) provided a marker to identify transfected cells. Transfected cells were selected for EGFP expression and examined by voltage-clamp recording in the whole-cell configuration using an Axopatch 200B patch-clamp amplifier (Axon Instruments, Foster City, Calif.). Thin-walled borosilicate glass microelectrodes (TW150F, World Precision Instruments, Sarasota, Fla.) had resistances of 3-5 MΩ when filled with an internal solution containing (in mM): 135 CsCl, 10 CsF, 10 HEPES (N-[2-hydroxyethyl]piperazine-N′-[2-ethanesulfonic acid]), 5 EGTA (ethylene glycol-bis[β-aminoethyl ether]-N,N,N′,N′-tetraacetic acid), 1 MgCl2, 0.5 CaCl2, pH 7.2. Whole-cell capacitance and series resistance were recorded and adequately compensated using the available circuitry of the amplifier. Current responses were filtered at 1 kHz with an 8-pole Bessel filter (Cygnus Technologies, Delaware Water Gap, Pa.), digitized at 3 kHz, and stored on a Macintosh PowerPC-G3 computer using an ITC-16 interface (Instrutech, Great Neck, N.Y.) under control of the data acquisition and analysis program Synapse (Synergy Research, Gaithersburg, Md.). Cells were continuously superfused with extracellular solution containing (in mM): 150 NaCl, 3 KCl, 5 HEPES, 1 MgCl2, 1.8 CaCl2, 10 glucose, and 0.1 mg/ml phenol red, pH 7.3 (MgCl2 was omitted from all solutions used for the study of NMDA receptors). […] Control, agonist, and drug solutions were applied to individual cells by rapid perfusion. Solutions were driven by a syringe pump through a flowpipe having 4 inputs that converge at a single common output of approximately 100 μm diameter. Rapid switching between inputs was achieved using a set of upstream solenoid valves (Lee Co., Westbrook, Conn.) under computer control; the solution exchange rate was ˜5 ms as measured from liquid junction currents.
Transfected HEK293 cells expressing various receptor subunit cDNAs were examined by whole-cell patch-clamp recording with fast perfusion of agonist and drug solutions. […] Transfected HEK293 cells expressing α3β4 nACh receptors were voltage-clamped to −70 mV and stimulated with 1 mM ACh at 30 s intervals. […] In FIG. 1A, open bars depict the timing of ACh application; filled bars depict the timing of co-application of 20 μM IBO or 20 μM 18MC; and inhibition was measured relative to control at the end of the drug application (indicated by arrows). […] The data presented in FIG. 1B are mean±SEM for 3-14 cells per point, and curve fits are given for the logistic equation: I=Imax/(1+([drug]/IC50)). […] In this case, transfected HEK293 cells expressing α3β4 nACh receptors were voltage-clamped to −70 mV and stimulated with 300 μM ACh at 30 s intervals.

NR1/2A receptors = biological target: T2, NR1/2A receptors (Rattus norvegicus, UniProt P35439+Q00959); assay: whole-cell patch-clamp of transfected HEK293 cells, NR1/2A, 100 μM glutamate plus 10 μM glycine; type: cell-based
T2 construct: expressed in transfected cells; host or cells: HEK293 (ATCC CRL1573), transient transfection
Description: as §1
To study these, transfected HEK293 cells expressing NR1/2A or NR1/2B receptors were voltage-clamped to −70 mV and stimulated with 100 μM glutamate plus 10 μM glycine at 30 s intervals. […] In FIGS. 3A and 3B, open bars depict the timing of agonist application, filled bars depict the timing of co-application of 20 μM IBO or 20 μM 18MC, and inhibition was measured relative to control at the end of the drug application (indicated by arrows).

T2 sequence (Q00959 20-1464 limits assumed, other chains not shown): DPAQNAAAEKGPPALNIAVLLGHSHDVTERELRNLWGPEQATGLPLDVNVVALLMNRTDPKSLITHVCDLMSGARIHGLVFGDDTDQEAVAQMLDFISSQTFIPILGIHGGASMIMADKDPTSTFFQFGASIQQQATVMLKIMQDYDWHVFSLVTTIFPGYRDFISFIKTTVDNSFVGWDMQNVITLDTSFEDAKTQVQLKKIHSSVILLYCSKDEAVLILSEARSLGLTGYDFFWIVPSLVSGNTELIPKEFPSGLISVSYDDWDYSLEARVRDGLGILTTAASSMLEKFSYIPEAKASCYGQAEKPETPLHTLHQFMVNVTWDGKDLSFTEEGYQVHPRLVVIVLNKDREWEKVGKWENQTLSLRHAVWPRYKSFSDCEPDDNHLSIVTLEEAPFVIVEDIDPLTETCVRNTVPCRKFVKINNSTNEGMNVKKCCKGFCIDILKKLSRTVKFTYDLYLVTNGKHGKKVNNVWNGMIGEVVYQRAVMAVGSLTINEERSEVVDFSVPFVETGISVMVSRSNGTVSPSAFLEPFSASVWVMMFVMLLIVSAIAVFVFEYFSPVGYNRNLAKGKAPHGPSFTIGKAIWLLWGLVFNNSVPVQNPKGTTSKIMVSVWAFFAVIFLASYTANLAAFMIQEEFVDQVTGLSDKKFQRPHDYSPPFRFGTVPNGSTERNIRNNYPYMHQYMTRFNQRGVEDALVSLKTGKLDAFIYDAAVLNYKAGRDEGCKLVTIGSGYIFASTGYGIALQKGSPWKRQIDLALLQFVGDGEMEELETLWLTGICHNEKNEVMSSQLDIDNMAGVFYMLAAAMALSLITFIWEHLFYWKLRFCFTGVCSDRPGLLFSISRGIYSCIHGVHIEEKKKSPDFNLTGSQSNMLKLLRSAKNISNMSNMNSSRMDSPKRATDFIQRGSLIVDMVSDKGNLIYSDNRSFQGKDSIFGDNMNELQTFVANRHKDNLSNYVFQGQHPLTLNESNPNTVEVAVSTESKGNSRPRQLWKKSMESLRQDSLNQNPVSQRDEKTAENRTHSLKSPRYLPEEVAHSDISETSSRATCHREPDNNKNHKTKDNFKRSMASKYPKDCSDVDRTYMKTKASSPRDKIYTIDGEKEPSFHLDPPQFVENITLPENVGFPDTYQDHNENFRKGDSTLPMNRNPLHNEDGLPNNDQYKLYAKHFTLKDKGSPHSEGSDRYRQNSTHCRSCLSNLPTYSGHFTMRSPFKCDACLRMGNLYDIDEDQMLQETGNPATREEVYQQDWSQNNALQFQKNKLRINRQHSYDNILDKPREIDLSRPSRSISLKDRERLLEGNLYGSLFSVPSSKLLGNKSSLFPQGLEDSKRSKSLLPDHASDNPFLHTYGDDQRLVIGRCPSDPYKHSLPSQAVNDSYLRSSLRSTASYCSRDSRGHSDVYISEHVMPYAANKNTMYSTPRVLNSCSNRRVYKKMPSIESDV
T1 sequence (P09483 31-630): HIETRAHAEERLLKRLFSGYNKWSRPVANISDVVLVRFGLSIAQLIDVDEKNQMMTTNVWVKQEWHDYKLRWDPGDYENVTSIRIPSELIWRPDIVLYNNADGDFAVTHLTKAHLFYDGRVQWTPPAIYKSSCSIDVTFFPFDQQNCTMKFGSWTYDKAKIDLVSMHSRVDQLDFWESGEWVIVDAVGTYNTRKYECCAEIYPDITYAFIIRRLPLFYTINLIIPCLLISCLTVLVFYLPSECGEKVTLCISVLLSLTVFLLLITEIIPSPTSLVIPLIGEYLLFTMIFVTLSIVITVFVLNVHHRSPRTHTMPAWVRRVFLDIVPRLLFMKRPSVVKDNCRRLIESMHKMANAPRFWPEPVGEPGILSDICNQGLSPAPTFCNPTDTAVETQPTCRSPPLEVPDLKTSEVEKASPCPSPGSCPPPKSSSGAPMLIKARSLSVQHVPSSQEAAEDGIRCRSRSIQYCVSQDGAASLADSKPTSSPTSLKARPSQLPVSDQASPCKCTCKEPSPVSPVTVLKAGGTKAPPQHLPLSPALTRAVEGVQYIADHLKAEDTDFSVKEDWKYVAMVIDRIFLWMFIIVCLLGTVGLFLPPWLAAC
T1 sequence (P12390 25-500): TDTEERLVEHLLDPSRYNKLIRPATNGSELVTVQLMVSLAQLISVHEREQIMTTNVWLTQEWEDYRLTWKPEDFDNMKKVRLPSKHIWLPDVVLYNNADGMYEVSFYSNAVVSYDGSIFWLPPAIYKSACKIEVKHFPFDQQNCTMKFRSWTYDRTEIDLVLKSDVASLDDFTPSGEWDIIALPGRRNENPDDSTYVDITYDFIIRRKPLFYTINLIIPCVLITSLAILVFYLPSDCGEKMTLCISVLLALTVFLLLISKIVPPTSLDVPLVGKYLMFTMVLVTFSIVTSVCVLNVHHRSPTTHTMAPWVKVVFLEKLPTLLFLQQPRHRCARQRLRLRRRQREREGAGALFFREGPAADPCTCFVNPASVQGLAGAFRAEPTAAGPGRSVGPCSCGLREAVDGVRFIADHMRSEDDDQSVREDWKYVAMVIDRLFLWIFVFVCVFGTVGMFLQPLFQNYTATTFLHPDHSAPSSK

Question: With COCC[C@H]1CC2CN3CCc4c([nH]c5ccccc45)[C@](C(=O)OC)(C2)[C@H]13 [18-methoxycoronaridine] as the molecule, how does the IC50 (nACh receptors) read?
Answer: > 20 µM

Question: What about the “response to drug applied alone (agonist activity)” value (NR1/2A receptors; 20 μM drug alone) of the same molecule?
Answer: did not produce any response

Question: What about the “inhibition of agonist-evoked response” value (NR1/2A receptors; concentrations up to 20 μM, N=3, FIG. 3A) of the same molecule?
Answer: failed to inhibit
